We go through three compounds from patent US9918983B2, “Suicidal LSD1 inhibitors targeting SOX2-expressing cancer cells” (THE BOARD OF REGENTS OF THE NEVADA SYSTEM OF HIGHER …, priority 2013, dated 2018).

Molecules are shown by their SMILES.

Test [1] concerns PA-1 cells. Briefly: Cell growth/viability (MTT, microscopy). The test is classed as cell-based, human. As for the experimental part:
(§1) Lung, breast, ovarian, and other carcinoma cells were either obtained from American Type Culture Collection (ATCC) or from the DTP and DCTD Tumor Repository of National Cancer Institute (the NCI-60 cancer cell line panel), operated by Charles River Laboratory, Inc., as listed in Table 1. They were cultured according to instructions and treated with various concentrations of LSD1 inhibitors for 30-36 hours for mRNA analysis by quantitative real time RT-PCR or for 30-48 hours for protein analysis and the cell viability assays using Western blotting or microscopy and MTT assays as described previously (Wang, J., et al. (2011) Cancer Research 71, 7238-7249).
(§2) Alternatively, cell viability assays were conducted as previously described (Wang, J., et al. (2011) Cancer Research 71, 7238-7249). For the MTT assay, cells were seeded onto 96-well culture plates with a density of 2000-5000 cells/well, and incubated with CBB1003 or CBB1007 at various concentrations from 1 to 100 μM for 30-48 hours, depending cell growth rate. Dimethylsulfoxide (DMSO) was used as a solvent control. MTT was added to a final concentration of 0.5 mg/mL and cells were re-incubated for 4 hours. After removing the medium, 200 μL DMSO was added to dissolve formazan, followed by incubation for 10 minutes, and absorbance was measured at 490 nm by a Bio Red microplate reader. All assays were performed in triplicates for each concentration. The cell viability rate was calculated as the relative percentage of MTT absorption as follows: % cell viability=(mean experimental absorbance/mean control absorbance)×100.
(§3) Table 8 below lists activity of CBB3001 (compound 10) in Sox2-negative (ES-2) and Sox2-expressing (PA-1 and T47D) cancer cells determined in a cell-based assay as described herein (see also FIG. 3A-C).

Test [2] deals with BT-549 cells. In words: Cell growth/viability (MTT, microscopy). The test is classed as cell-based, human. To be noted: BT549 cells, 50 μM, 30 hours. As to the method:
as §1, §2

For test [3], the system named is HS38.T cells. Briefly: Cell growth/viability (MTT, microscopy). Type of test: cell-based, human. To be noted: 50 μM, 30 hours. As to the method:
as §1, §2

The test system of test [4] is IGROV-1 cells. Briefly: Cell growth/viability (MTT, microscopy). Type of test: cell-based, human. To be noted: 50 μM, 30 hours. As for the experimental part: as §1, §2
The subject of test [5] is MCF7 cells. In words: Cell growth/viability (MTT, microscopy). Particulars: 50 μM, 30 hours. Type of test: cell-based, human. As for the experimental part: as §1, §2
For test [6], the system named is SK-BR-3 cells. In words: Cell growth/viability (MTT, microscopy). The test is classed as cell-based, human. Particulars: 50 μM, 30 hours. As to the method:
as §1, §2

In test [7] the test system is SKOV-3 cells. Briefly: Cell growth/viability (MTT, microscopy). The test is classed as cell-based, human. Particulars: 50 μM, 30 hours. As to the method: as §1, §2
Test [8] has as its system ES-2 cells. Briefly: Cell growth/viability (MTT, microscopy). Type of test: cell-based, human. As to the method: as §1
as §2, with “For the MTT assay, cells were seeded onto 96-well culture plates with a density of 2000-5000 cells/well, and incubated with CBB1003 or CBB1007 at various concentrations from 1 to 100 μM for 30-48 hours, depending cell growth rate.” left out
as §3

Test [9] deals with G401 cells. In words: Cell growth/viability (MTT, microscopy). Type of test: cell-based, human. Particulars: 50 μM, 30 hours. As to the method:
as §1
(§4) Alternatively, cell viability assays were conducted as previously described (Wang, J., et al. (2011) Cancer Research 71, 7238-7249). […] After removing the medium, 200 μL DMSO was added to dissolve formazan, followed by incubation for 10 minutes, and absorbance was measured at 490 nm by a Bio Red microplate reader. […] The cell viability rate was calculated as the relative percentage of MTT absorption as follows: % cell viability=(mean experimental absorbance/mean control absorbance)×100.
Referring to FIG. 10B, Sox2-expressing myelogenous leukemia and rhabdoid tumor cells were also sensitive to LSD1 inhibitors. […] The statistical differences between compound treated and control groups were analyzed by One-way ANOVA. *: p<0.05 and **: p<0.01.

Test [10] has as its system Sox2. In words: Sox2 protein level by western blotting in carcinoma cells. Particulars: indicated carcinoma cells, 30 hr. The arrangement: dose or concentration left out as unconfirmed. Type of test: cell-based, human. An excerpt:
Log-phase growing cancer cells were directly lysed in a buffer containing 0.5% SDS. Proteins in the lysates were equalized and analyzed by Western blotting using antibodies against Sox2, LSD1, H3K4Me1, H3K4Me2, Oct4, and other proteins as described previously or in the figure descriptions (Wang, J., et al. (2011) Cancer Research 71, 7238-7249). For immunohistochemical staining, rabbit monoclonal anti-LSD1 (clone C69G12, cat. #2184) and anti-Sox2 (clone D6D9, cat. #3579) antibodies were obtained from Cell Signaling. Rabbit anti-Sox2 polyclonal antibodies were raised using the purified GST-Sox2 fusion protein as the antigen.
Referring to FIG. 11A, inactivation of LSD1 by LSD1 inhibitors or siRNAs caused the downregulation of Sox2. The indicated carcinoma cells were treated with […] of the LSD1 inhibitors CBB1007 and CBB1003 for 30 hr or with 50 nM of Luc or LSD1 siRNAs for 60 hr. The protein levels of LSD1, Sox2, Lin28, CUL1, and histone H3 were analyzed by western blotting.

Test [11] concerns TP63 and KRT6A. In words: TP63 and KRT6A mRNA by real-time RT-PCR in NCI-H520 cells. Particulars: 50 μM, 30 hours. The test is classed as cell-based, human. As to the method:
(§5) Total RNA was extracted using TRIZOL reagent (TaKaRa) and complementary DNA was generated according to instructions in the PrimeScript 1st strand cDNA Synthesis Kit (TaKaRa) as described previously (Wang, J., et al. (2011) Cancer Research 71, 7238-7249). The cDNAs were diluted to 1/20 and 1 μL of each diluted sample was used as template for each sample. Real-time quantitative PCR was performed on an ABI Prism 7300 sequence detection system (Applied Biosystems) using SYBR Green (TaKaRa) according to the manufacturer's instructions. PCR amplification of the housekeeping gene β-Actin was performed as a control. Experiments for specific silencing or induction of gene expression were repeated at least three times. The real-time PCR primers of human genes are described in Table 3 above.
(§6) Left panels: lung carcinoma NCI-H520, A549, and H1299 cells were either treated with 50 μM CBB1003 for 30 hours or were transfected with Luc, LSD1, or Sox2 specific siRNAs for 48 hours as indicated. […] The statistical differences between experimental and control groups were analyzed by one-way ANOVA (*: p<0.05 and **: p<0.01). Right panels: the ablation efficiency of LSD1 and Sox2 siRNAs was examined.
On the technique in general: Quantitative PCR measures a nucleic acid by following its amplification.

Test [12] has as its system TP63 and KRT6A. Briefly: TP63 and KRT6A mRNA by real-time RT-PCR in A549 cells. Particulars: 50 μM, 30 hours. The test is classed as cell-based, human. As for the experimental part: as §5, §6
The target of test [13] is T1, LSD1 (Homo sapiens, UniProt O60341).
T1 construct: LSD1 activity determined in a cell-based assay as described herein; endogenous in cells
In words: LSD1 activity (LSD1 IC50, Table 7, FIG. 2). Type of test: cell-based. As for the experimental part:
For a typical deacetylation assay, 1 μg rHDAC1 or 1 μg immunoprecipitated endogenous HDAC1-protein A complexes (from two 10-cm dishes) was incubated with 0.4 μg H4K16ac peptide in the presence or absence of 50 μM CBB1007 or 2 μM MS-275 at 30° C. for 1 h. The percentages of deacetylated products were analyzed by mass spectrometry, and the data were analyzed by GraphPad Prism (version 5) software. The reaction products were analyzed by mass spectrometry to separate the peptide substrate (H4K16ac) and the product (H4K16), as previously described (Wang, J., et al. (2011) Cancer Research 71, 7238-7249). For a typical demethylation assay, 0.4 μg H3K4me2 substrate peptide was incubated individually with 1 μg recombinant LSD1 (rLSD1) or 1 μg immunoprecipitated LSD1-protein A complex in the presence or absence of 50 μM CBB1007 or 2 μM MS-275 at 30° C. for 1 h. The reaction products were analyzed by mass spectrometry to separate the products (H3K4me1 and H3K4) from the substrate (H3K4me2), as previously described (Wang, J., et al. (2011) Cancer Research 71, 7238-7249).
Table 7 below lists specific compounds and LSD1 activity determined in a cell-based assay as described herein (see also FIGS. 2A and 2B).

For test [14], the system named is T47D cells. Briefly: Cell growth/viability (MTT, microscopy). Type of test: cell-based. Particulars: Homo sapiens; Sox2-expressing T47D cancer cells. As for the experimental part: as §1, §4, §3
Test [15] deals with F9 cells. Briefly: Cell cycle analysis by FACS in F9 cells. Type of test: cell-based, mouse. To be noted: 5 μM RA for 3 days. As to the method:
(§7) The fluorescence-activated cell sorting (FACS) and 3-(4,5-dimethyl-2-thiazolyl)-2,5-diphenyl-2H-tetrazolium bromide (MTT) assays were conducted as described previously (Lan, R., et al. (2012) Lab. Invest. 92, 1503-1514). To synchronize PA-1 and F9 cells at the G1/S phase transition, cells were treated with 2.5 mM thymidine for 12 h, released into fresh medium for 6 h, and blocked again with 2.5 mM thymidine for an additional 12 h. The cell cycle arrest was analyzed by FACS. For differentiation, F9 and PA-1 cells were seeded in 6-well plates at a density of 1×10^4 cells per well and supplemented with 5 μM RA for 3 days. Cells were then recultured in fresh medium without RA for another 2 days, and the cell cycle was analyzed on a BD FACSCalibur cell sorter using the CellQuest program (Becton, Dickinson, Mountain View, Calif.). The percentages of cells in G1, S, and G2/M phases were determined by the use of ModFit LT software.
On the technique in general: In flow cytometry, cells or beads pass a laser one at a time.

The test system of test [16] is PA-1 cells. Briefly: Cell cycle analysis by FACS in PA-1 cells. The test is classed as cell-based, human. To be noted: 5 μM RA for 3 days. As to the method: as §7
The subject of test [17] is OCT4, SOX2, FOXA2, BMP2. Briefly: Expression of pluripotency and differentiation genes in F9 cells. The test is classed as cell-based, mouse.
Experimental: (§8) Alternatively, total RNA was extracted with the TRIzol reagent (Invitrogen), and cDNA was generated using a cloned avian myeloblastosis virus first-strand cDNA synthesis kit (TaKaRa). The mRNA levels of the target genes were quantified by realtime PCR using SYBR green (TaKaRa) in an ABI Prism 7300 real-time PCR system (Applied Biosystems). […] To synchronize PA-1 and F9 cells at the G1/S phase transition, cells were treated with 2.5 mM thymidine for 12 h, released into fresh medium for 6 h, and blocked again with 2.5 mM thymidine for an additional 12 h. The cell cycle arrest was analyzed by FACS. For differentiation, F9 and PA-1 cells were seeded in 6-well plates at a density of 1×10^4 cells per well and supplemented with 5 μM RA for 3 days. Cells were then recultured in fresh medium without RA for another 2 days, and the cell cycle was analyzed on a BD FACSCalibur cell sorter using the CellQuest program (Becton, Dickinson, Mountain View, Calif.). The percentages of cells in G1, S, and G2/M phases were determined by the use of ModFit LT software.
In test [18] the test system is OCT4, SOX2, FOXA2, BMP2. Briefly: Expression of pluripotency and differentiation genes in PA-1 cells. Type of test: cell-based, human.
Experimental: as §8

One may read the IC50 as the point on the concentration scale where inhibition reaches its midpoint.

For the compound `N=C(N)c1ccc(C(=O)N2CCN(C(=O)c3cc(CN4CCN(C(=N)N)CC4)cc([N+](=O)[O-])c3)CC2)cc1` [CBB1003], the cell growth entry in test [1] (PA-1 cells, 50 μM, 30 hours) is recorded as “sensitive”; in test [2], “not sensitive”; in test [3], “not sensitive”; in test [4], “sensitive”; in [5], “sensitive”; in test [6], “not sensitive”. Besides, the cell growth entry was “sensitive” in [7]; “not sensitive” in test [8] (ES-2 cells, 50 μM, 30 hours); “inhibited” in [9]. In addition, the Sox2 protein level entry in test [10] was “downregulation”. For the same compound, the “mRNA levels of TP63 and KRT6A” value in test [11] and in [12] was “down-regulated” throughout.

Take `CC(C)(C)OC(=O)N[C@@H]1C[C@H]1c1ccc(OC(=O)OC(C)(C)C)cc1` [Compound 10, Tert-Butyl ((1R,2S)-2-(4-((Tert-Butoxycarbonyl)Oxy)Phenyl)Cyclopropyl)Carbamate]: the IC50 in test [13] is 21.2 µM; in test [1] (Homo sapiens, Sox2-expressing PA-1 cancer cells) it was 15.2 µM; in test [8] (Homo sapiens, Sox2-negative ES-2 cancer cells) it was 310 µM; in test [14], 22.1 µM.

For `CC1=C(/C=C/C(C)=C/C=C/C(C)=C/C(=O)O)C(C)(C)CCC1` [RA, all-trans-retinoic acid], the cell cycle effect result in test [15] and in test [16] was “G1 cell cycle arrest” in each case. Besides, the “OCT4 and SOX2 levels” value in test [17] and in test [18] was “reduction” throughout. Moreover, the “genes for differentiation, such as FOXA2 and BMP2” value in test [17] and in test [18] was “induction” throughout.
